The target of assay [1] is T1, Adenosine receptor A1 (Rattus norvegicus, UniProt P25099).
T1 sequence (P25099 whole entry): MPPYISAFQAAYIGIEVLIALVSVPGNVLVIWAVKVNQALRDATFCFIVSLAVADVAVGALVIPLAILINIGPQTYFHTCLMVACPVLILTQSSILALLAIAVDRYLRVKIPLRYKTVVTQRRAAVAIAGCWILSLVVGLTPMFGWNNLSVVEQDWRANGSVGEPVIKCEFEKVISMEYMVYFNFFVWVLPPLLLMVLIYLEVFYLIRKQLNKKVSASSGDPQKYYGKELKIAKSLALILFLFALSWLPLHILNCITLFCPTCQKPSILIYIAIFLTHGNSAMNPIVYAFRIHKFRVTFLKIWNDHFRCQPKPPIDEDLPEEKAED
Description: Displacement of [3H]DPCPX from Sprague-Dawley rat whole brain membrane A1AR by scintillation counting analysis. The assay is classed as cell membranes.

The target of assay [2] is T2, Adenosine receptor A1 (Rattus norvegicus) (UniProt P25099).
T2 sequence (whole entry): T1 sequence (P25099 whole entry)
Description: Displacement of [3H]DPCPX from Sprague-Dawley rat whole brain membrane A1AR at 100 uM by scintillation counting analysis relative to control. The class given is cell membranes.

In assay [3] the target is Adenosine receptor A2a (Rattus norvegicus, UniProt P30543). As to the kind of experiment: Displacement of [3H]NECA from Sprague-Dawley rat striatal membrane A2A adenosine receptor by scintillation counting analysis. The class given is cell membranes, Striatum.
The target in assay [4] is Adenosine receptor A2a (Rattus norvegicus) (UniProt P30543). As to the kind of experiment: Displacement of [3H]NECA from Sprague-Dawley rat striatal membrane A2A adenosine receptor at 100 uM by scintillation counting analysis relative to control. Conditions: Striatum. The class given is cell membranes.
Assay [5] concerns the target T1, Adenosine receptor A1. Description: Displacement of [3H]DPCPX from Sprague-Dawley rat whole brain membrane A1AR in presence of GTP by radioligand binding assay. The assay is classed as cell membranes.
In assay [6] the target is T2, Adenosine receptor A1 (Rattus norvegicus). Description: Ratio of Ki for displacement of [3H]DPCPX from Sprague-Dawley rat whole brain membrane A1AR in presence of GTP to Ki for displacement of [3H]DPCPX from Sprague-Dawley rat whole brain A1AR. The class given is cell membranes.
Assay [7] is filed under the species Rattus norvegicus. As to the kind of experiment: Selectivity index, ratio of Ki for Sprague-Dawley rat striatal membrane A2 adenosine receptor to Ki for Sprague-Dawley rat whole brain A1 adenosine receptor.

Results on 26 compounds are retold here after ChEMBL document CHEMBL4622929 (Bioorg Med Chem Lett, 2020).

Where only a bound is given, the exact number is not on record here.

Adenosine receptor A2a (Rattus norvegicus), sequence (P30543 whole entry): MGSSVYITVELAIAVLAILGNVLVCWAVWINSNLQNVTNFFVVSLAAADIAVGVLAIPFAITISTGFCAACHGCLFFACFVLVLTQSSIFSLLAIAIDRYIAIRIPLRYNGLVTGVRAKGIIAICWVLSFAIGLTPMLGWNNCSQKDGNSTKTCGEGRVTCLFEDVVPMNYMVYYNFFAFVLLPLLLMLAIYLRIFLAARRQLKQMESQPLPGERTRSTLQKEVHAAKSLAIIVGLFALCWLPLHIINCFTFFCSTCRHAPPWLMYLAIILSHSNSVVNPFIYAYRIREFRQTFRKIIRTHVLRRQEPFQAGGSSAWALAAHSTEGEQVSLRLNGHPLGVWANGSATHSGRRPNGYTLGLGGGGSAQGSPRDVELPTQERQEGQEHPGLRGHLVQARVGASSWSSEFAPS
Adenosine receptor A2a, sequence (P30543 whole entry): as above

Turning to `O=c1oc(-c2ccc(F)cc2)nc2ccccc12`, the Ki in assay [1] and in assay [3] was greater than 100 µM each time. Also, the inhibition in assay [2] was found to be 100%; in assay [4] it was 70%.
`O=c1oc(-c2cccs2)nc2ccccc12`: the Ki is 32.4 µM in assay [1] and greater than 100 µM in assay [3]. Besides, the inhibition in assay [4] was found to be 59%.
In the case of `Oc1nc(-c2cccs2)nc2ccccc12`, the Ki in assay [1] and in assay [3] was greater than 100 µM each time. In addition, the results for the inhibition in assay [2] and in assay [4] were 39% and 30%, respectively.
In the case of `Cc1ccc(-c2nc3ccccc3c(=O)o2)cc1`, the Ki in assay [1] and in assay [3] was greater than 100 µM each time. Besides, the inhibition was found to be 84% in assay [2] and 77% in assay [4].
Take `COc1ccc(-c2nc3ccccc3c(=O)o2)cc1`: the Ki in assay [1] and in assay [3] was greater than 100 µM in each case. For the same compound, the inhibition in assay [2] was 54%; in assay [4], 37%.
Turning to `O=C1OC(c2ccccc2)Nc2ccccc21` (centres undefined), the inhibitory constant (Ki) in assay [1] is 5.06 µM; in assay [3], greater than 100 µM; in assay [5], 5.72 µM. The same compound showed an inhibition in assay [4] of 69%. The Ratio Ki in assay [6] was found to be 1.12.
With `Oc1nc(-c2ccccc2)cc2ccccc12`, the inhibition in assay [2] and in assay [4] was 100% each time.
Regarding `Oc1nc(-c2ccc(F)cc2)nc2ccccc12`, the Ki in assay [1] and in assay [3] was greater than 100 µM each time. Also, the inhibition worked out at 50% in assay [2] and 62% in assay [4].
With `O=c1[nH]c(-c2ccccc2)cc2ccccc12`, the Ki in assay [1] and in assay [3] was greater than 100 µM in each case.
In the case of `O=c1oc(-c2ccco2)nc2ccccc12`, the Ki in assay [1] and in assay [3] was greater than 100 µM in each case. The figures for the inhibition in assay [2] and in assay [4] were 42% and 66%, respectively.
Take `COc1ccc(-c2nc(O)c3ccccc3n2)cc1`: the inhibition in assay [2] is 44%; in assay [4], 79%.
In the case of `CCOc1ccc(-c2nc3ccccc3c(=O)o2)cc1`, the Ki in assay [1] and in assay [3] was greater than 100 µM in each case. Further, the values for the inhibition in assay [2] and in assay [4] were 99% and 77%, respectively.
For the compound `COc1ccc(-c2nc3ccccc3c(=O)[nH]2)cc1`, the Ki in assay [1] and in assay [3] was greater than 100 µM throughout.
For `O=c1[nH]c(-c2ccc(Cl)cc2)nc2ccccc12`, the Ki in assay [1] and in assay [3] was greater than 100 µM in each case. Also, the inhibition in assay [2] is 54%; in assay [4], 82%.
For `COc1ccc(-c2nc(O)c3ccccc3n2)cc1OC`, the figures for the Ki in assay [1] and in assay [3] were greater than 100 µM and 2.81 µM, respectively. The compound further came in with an inhibition in assay [2] of 67%.
Consider `OC[C@H]1O[C@@H](n2cnc3c(NC4CCCC4)ncnc32)[C@H](O)[C@@H]1O` [N6-CYCLOPENTYLADENOSINE], for which, in assay [3], the Ki was determined as 0.557 µM.
Regarding `O=c1oc(-c2ccc(Br)cc2)nc2ccccc12`, the Ki in assay [1] and in assay [3] was greater than 100 µM each time. The inhibition is 95% in assay [2] and 92% in assay [4].
Turning to `O=c1oc(-c2ccccc2)nc2ccccc12`, the Ki in assay [1] is 6.38 µM; in assay [3], greater than 100 µM; in assay [5], 6.92 µM. The same compound came in with an inhibition in assay [4] of 49%. Also, the Ratio Ki in assay [6] turned out to be 1.09.
In the case of `O=c1oc(-c2ccc(Cl)cc2)nc2ccccc12`, the Ki in assay [1] and in assay [3] was greater than 100 µM throughout. The inhibition in assay [2] came to 86%; in assay [4] it was 81%.
With `Cc1ccc(-c2nc3ccccc3c(=O)[nH]2)cc1`, the Ki was 2.5 µM in assay [1], greater than 100 µM in assay [3] and 2.95 µM in assay [5]. The compound also yielded an inhibition in assay [4] of 55%. Moreover, the Ratio Ki in assay [6] came to 1.18.
As for `O=c1oc(/C=C/c2ccccc2)nc2ccccc12`, the Ki in assay [1] and in assay [3] was greater than 100 µM each time. Moreover, the inhibition in assay [2] was determined as 56%; in assay [4] it was 85%.
As to `O=c1[nH]c(/C=C/c2ccccc2)nc2ccccc12`, the Ki in assay [1] and in assay [3] was greater than 100 µM in each case. Further, the figures for the inhibition in assay [2] and in assay [4] were 100% and 56%, respectively.
On to `O=c1oc2ccccc2cc1-c1ccccc1`, for which the Ki in assay [1] and in assay [3] was greater than 100 µM each time. Moreover, the inhibition in assay [2] is 51%; in assay [4], 77%.
Regarding `O=c1[nH]c(-c2ccco2)nc2ccccc12`, the values for the Ki in assay [1], in assay [3] and in assay [5] were 4.62 µM, 8.11 µM and 5.89 µM, respectively. In addition, the Ratio Ki was determined as 1.23 in assay [6] and 1.76 in assay [7].
For `O=c1[nH]c(-c2ccc(Br)cc2)nc2ccccc12`, the Ki in assay [1] and in assay [3] was greater than 100 µM each time. For the same compound, the inhibition in assay [2] is 98%; in assay [4], 84%.
With `O=c1oc2ccccc2nc1-c1ccccc1`, the Ki in assay [1] was 17.3 µM; in assay [3], greater than 100 µM. This compound also came in with an inhibition in assay [4] of 91%.
